Results taken from patent US5919769A, “Fucose derivatives, drugs containing the same as active ingredient, and intermediates for producing the same” (Kanebo, Ltd, priority 1995, dated 1999).

Key:
[1] = Inhibitory effects on ear swelling (ovalbumin-sensitized mice); format: in vivo, Female BALB/c mice; conditions: tail vein at 2, 5 and 8 hours, 24 hours after induction
Description: Inhibitory effects on ear swelling:
(§1) Female BALB/c mice (6-weeks old) were sensitized by intraperitoneal injection of saline (0.5 ml) containing ovalbumin ([…]) and aluminum hydroxide gel (4 mg). Two weeks after the sensitization, a 1 mg/ml solution of ovalbumin in phosphate buffered saline (10 μl) was subcutaneously injected to the mice at both of the ears to induce the inflammatory response. In the non-inflammation group, phosphate buffered saline was subcutaneously injected to the sensitized mice instead.
(§2) The test compound was dissolved in 0.01N-NaOH-saline so as to be a concentration of 1 mg/ml, and the solution was diluted with saline. The test compound solution thus prepared was injected to the mice at the tail vein, at 2, 5 and 8 hours after the induction of inflammatory response, in a dosage volume of 0.1 ml/10 g of body weight (the treated group). In the control group, saline only was injected to the mice.
Twenty-four hours after the induction of inflammatory response, both of the ears were cut to collect a piece of 6 mm diameter, and the weight thereof was measured. The ear weight per area was used as an index for ear swelling. The inhibitory rate on ear swelling was calculated by the following equation. [formula] Wexp: Average ear weight in the treated group Wnega: Average ear weight in the non-inflammation group
Wcont: Average ear weight in the control group

[2] = molecular target: L-selectin; assay: Inhibitory test on the binding of L-selectin to sialyl Le^X (selectin-IgG chimera); conditions: inhibition of L-selectin IgG chimera binding to sialyl Le^X-pentaceramide
Description: (§3) The experiment was carried out according to the method using selectin-IgG chimera, which was reported by Foxall, C. et al. (J. Cell Biol., 117, 895-902 (1992)).
(§4) Sialyl Le^X -pentaceramide was dissolved in 50% methanol in distilled water, and the solution was put into a 96-well plate in an amount of 100 pmol/well. The plate was allowed to stand at room temperature overnight, and the solvent therein was evaporated. The plate was washed with distilled water, and subjected to blocking with 50 mM imidazole buffer (pH 7.2) containing 5% BSA (bovine serum albumin) and 1 mM calcium chloride at room temperature for one hour.
(§5) Separately, to 500-fold diluted solution of each biotinylated anti-human IgG Fc and streptavidin-alkaline phosphatase conjugate with a 50 mM imidazole buffer (pH 7.2) containing 1% BSA and 1 mM calcium chloride, P-selectin IgG chimera was added to give a final concentration of 40 μg/ml, and the mixture was incubated at room temperature for 30 minutes to give the complex solution.
(§6) A test compound was dissolved in DMSO (except that the test compound h was dissolved in distilled water) to give 10 mM aqueous solution thereof, which was serially diluted with 50 mM imidazole buffer (pH 7.2) containing 1% BSA and 1 mM calcium chloride to give the solutions in 8 various concentrations (two-fold serial dilution from 20 μM). The test compound solution in each concentration and the above complex solution were mixed in equal volume, and the mixture was incubated at room temperature for 30 minutes to give the reaction solution.
(§7) After the blocking was completed, the blocking solution in the above plate was discarded, and the plate was washed with 50 mM imidazole buffer (pH 7.2), and thereto was added the above reaction solution in an amount of 50 μl/well. The plate was incubated at 37° C. for 45 minutes, and then washed three times with 50 mM imidazole buffer (pH 7.2) and washed three times with distilled water. 1M diethanolamine (pH 9.8) containing 0.01% magnesium chloride and 1 mg/ml p-nitrophenyl phosphate was put into each well in an amount of 50 μl/well, and the plate was allowed to stand for 1 to 2 hours for color development. The absorbance at 405 nm was measured, and the binding rate (%) was calculated by the following equation, based on the absorbance (X) of the wells containing a test compound at various concentrations and the absorbance (A) of the wells containing no test compound.
(§8) IC50 was evaluated by probit method from the binding rate.
Inhibitory test on the binding of L-selectin to sialyl Le^X :
The same procedures of Experiment 1 were repeated except that L-selectin IgG chimera (40 μg/ml) was used instead of P-selectin IgG chimera (40 μg/ml).

[3] = system: cell infiltration; assay: Inhibitory effects on cell infiltration (MPO activity in ear tissue of Experiment 3); format: in vivo, Female BALB/c mice; conditions: tail vein at 2, 5 and 8 hours
Description: as §1, §2
Inhibitory effects on cell infiltration:
According to the report by Bradley, P. P. et al, (cf., Journal of Investigative Dermatology, 78, 206-209 (1982)), the activity of myeloperoxidase (hereinafter, referred to as MPO) in the tissue was used as an index for cell infiltration.
The ear tissue, the weight of which was measured in Experiment 3, was homogenized, and centrifuged. The MPO activity in the supernatant was measured by using the absorbance at 450 nm (hereinafter, referred to as OD) of o-dianisidine as an index, according to the method of Bradley, et al. (see the above reference).
The inhibitory rate on cell infiltration was calculated by the following equation. [formula] ODexp: Average OD in the treated group ODnega: Average OD in the non-inflammatory group
ODcont: Average OD in the control group

[4] = molecular target: P-selectin; assay: Inhibitory test on the binding of P-selectin to sialyl Le^X (selectin-IgG chimera); conditions: inhibition of P-selectin IgG chimera binding to sialyl Le^X-pentaceramide
Description: Inhibitory test on the binding of P-selectin to sialyl Le^X :
as §3, §4, §5, §6, §7, §8

[5] = system: cell infiltration; assay: Inhibitory effects on the peritoneal inflammation induced by thioglycollate (cell infiltration, MPO activity); format: in vivo, Male BALB/C mice; conditions: 10 mg/kg, tail vein just before and one hour after induction, peritoneal exudate cells
Description: Inhibitory effects on the peritoneal inflammation induced by thioglycollate:
Male BALB/C mice (11-weeks old) were peritoneally injected with 3% thioglycollate medium (1 ml) to induce the inflammation. In the non-inflammation group, saline was peritoneally injected to the mice. Two hours thereafter, the mice were killed with […], and the peritoneal cavity was washed with a phosphate buffered saline containing 0.1% BSA, 0.5 mM EDTA, 10 U/ml heparin to collect the exudate cells. The red blood cells were lysed, and the exudate cells were lysed in 50 mM potassium phosphate buffer containing 0.5% hexadecyltrimethylammonium bromide. The MPO activity in the supernatant was measured according to the Bradley's method (see the above reference).
The test compound was dissolved in 0.0012M arginine-containing saline solution so as to be a concentration of 1 mg/ml. The test compound solution was injected to the mice at the tail vein in a dosage volume of 0.1 ml/10 g of the body weight, at just before and one hour after the induction of inflammation response (the treated group). In the control group, saline solution was injected to the mice.
The cell infiltration inhibitory rate was calculated in the same manner as in Experiment 4, by the equation 3.

[6] = Oral toxicity observation in mice; format: in vivo; conditions: 1000 mg/kg orally, observed for one week
Description: Moreover, the compound (I) of the present invention or a salt thereof show low toxicity. […] Therefore, the compound (I) of the present invention or a salt thereof is useful as a medicament.

IC50 [2] [nM] | IC50 [4] [nM] | SMILES | Ear swelling inhibitory rate ([1]; 0.1 mg/kg) [%] | Ear swelling inhibitory rate ([1]; 1 mg/kg) [%] | Ear swelling inhibitory rate ([1]; 10 mg/kg) [%] | Cell infiltration inhibitory rate ([3]; 0.1 mg/kg) [%] | Cell infiltration inhibitory rate ([3]; 1 mg/kg) [%] | Cell infiltration inhibitory rate ([3]; 10 mg/kg) [%] | Cell infiltration inhibitory rate [5] [%] | change observed after oral administration [6]
500 | 300 | CCCCCCCCCCCCCCC(CCCCCCCCCCCCCC)C(=O)N[C@H](CO[C@@H]1O[C@H]([C@H](C)O)[C@@H](O)[C@@H]1O)C(=O)N[C@@H](CCC(=O)O)C(=O)NC [compound c, [N-(2-tetradecylhexadecanoyl)-O-(α-L-fucofuranosyl)-D-seryl]-L-glutamic acid 1-methylamide] | 45 | 59 | 86 | 19 | 34 | 64 | 64 | no significant change was observed
9400 | 700 | CCCCCCCCCCCCCCC(CCCCCCCCCCCCCC)C(=O)N[C@H](CO[C@@H]1O[C@@H](C)[C@@H](O)[C@@H](O)[C@@H]1O)C(=O)N[C@@H](CCC(=O)O)C(=O)NC [compound k, [N-(2-tetradecylhexadecanoyl)-O-(α-L-fucopyranosyl)-D-seryl]-L-glutamic acid 1-methylamide] |  |  |  |  |  |  | 37 | 
